Counter-ions that a name gives are not always drawn. Blank lines part the entries; values can stand above or below the compound they belong to.
Key:
γ-globin promoter = assay: KU812 dual-luciferase reporter assay of γ-globin promoter activity; format: cell-based, human; conditions: for concentration of maximal induction of γ-globin promoter activity: 0-1000 μM, 48 h
Source text: (§1) KU812 stable cell lines were created by co-transfecting wild-type KU812 cells with pEGFP-NI (G418 selectable marker) and the μLCRβprRluc AγprFluc dual reporter a kind gifts from Dr. George Stamatoyannopoulos (University of Washington). Briefly, the 315-bp human β-globin gene promoter sequence was inserted upstream of the Renilla along with a polyadenylation signal downstream to create PβprRluc. Likewise, 1.4 kb of human aγ-globin promoter was inserted upstream of firefly luciferase to create AγprFluc. The μLCR (locus control region), PβprRluc, and AγprFluc fragments were subsequently cloned into the mammalian vector, pRL-null. The dual-luciferase reporter lines were produced using 10 μg each of linearized μLCRβprRluc AγprFluc and pEGFP-NI plasmids co-transfected into KU812 cells by electroporation at 260 V, 975 μF (Bio-Rad, Hercules Calif.). After 72 hr, G418 was added at a concentration of 900 μg/μl for 3 days then maintained under selection pressure indefinitely at a concentration of 400 μg/μl. […] FK228 and analogues were screened at concentrations between 1-1000 nM for 48 hr and cell toxicity was monitored by 2% Trypan blue exclusion. The effect of drug treatments on γ-globin and β-globin promoter activity was monitored by luciferase assay.
Luciferase activity was monitored under the different experimental conditions using the Dual Luciferase Assay Reporter System (Promega, Madison, Wis.). The activity of firefly luciferase represents γ-globin promoter activity (γF), while the renilla luciferase is the read-out for β-globin promoter activity (βR). […] After drug treatments, KU812 stable cells were washed with 1× phosphate buffered saline and lysed in 1× Passive Lysis Buffer for 15 min, then protein extracts were added to the Luciferase Assay Reagent II and firefly luciferase activity quantified in a Turner Designs TD-20/20 luminometer (Sunnyvale, Calif.). […] Total protein was determined by Bradford assay on a Beckman DU 640 spectrophotometer (Chaska, Minn.) and luciferase activity was corrected for total protein. […]

[1] = system: small intestinal cell model; conditions: cited from earlier work
[2] = system: HbF in primary human erythroid cells; assay: FACS of HbF positive cells in primary human erythroid progenitors; format: cell-based; conditions: DMF 200 μM, MMF 1000 μM, HU 100 μM
Experimental: HU (100 μM; Sigma) was included as a positive control and cell viability was monitored by trypan blue exclusion. Findings in KU812 cells were confirmed in human primary erythroid progenitor cells grown in liquid culture using a published protocol. Globin expression was measured by qPCR also as previously published. HbF protein was measured relative to that of isotype control using FITC conjugated anti-human HbF antibody (1:1000; Santa Cruz Biotechnology, Santa Cruz, Calif.) and fluorescence activated cell sorting (see supplemental methods for details). HbF protein expression was confirmed by Western blot analysis using anti-human HbF antibody (1:1000; Bethyl Laboratories, Inc., Montgomery, Tex.) and horseradish peroxidase-conjugated sheep IgG (1:1000; Santa Cruz).
Erythroid progenitors were generated in vitro from adult CD34^+ stem cells ([…] technologies, Inc. Vancouver, Canada) using a 2-stage culture system that achieves terminal erythroid differentiation18. CD34^+ stem cells (500,000) were grown in First medium consisting of Iscove Modified Dulbecco Media containing human AB serum, interleukin-3 (10 ng/mL), stem cell factor (10 ng/mL) and erythropoietin (2 IU/mL). On day 7, the erythroblasts were placed in Second medium with 2 IU/mL erythropoietin for the duration. […] Then cells were harvested for total RNA and protein for qPCR, FACS and western blot analyses.
After drug treatments, 500,000 cells were washed twice with phosphate buffered saline and then fixed in 4% paraformaldehyde and permeated with ice-cold acetone/methanol (4:1). Cells were incubated with anti-γ-globin-FITC antibody (Santa Cruz Biotechnology, Santa Cruz, Calif.) in PBT (PBS/01% BSA/0.1% triton X100) solution for 20 min to stain intracellular HbF antigens. The labeled cells were analyzed by Bectin Dickerson LSR-II flow cytometer (BD Bioscience). All experiments were performed in triplicate.

OCTN1 = OCTN1 mRNA expression in ARPE-19 cells; format: cell-based, human; conditions: RPE (ARPE-19) cells; MMF 1000 μM, HU 100 μM
Source text: Red blood cells, cells of erythroid lineage, are the primary producers of hemoglobin. […] The includes retinal pigment epithelial (RPE) cells, a cell type critical to normal visual function. […] Data are represented as mean±SEM; *p<0.05.

[3] = system: γ-globin gene expression in primary RPE cells; assay: γ-globin/HbF expression in primary RPE cells from humanized mice; format: cell-based, mouse; conditions: ARPE-19 and primary RPE cells (FIGS. 8B, 8D, 8E, 11)
Experimental: The effect of MMF on primary RPE cells was also investigated. RPE cells were isolated from the eyes of humanized mice and used to establish primary RPE cell cultures. […] Primary RPE cells were cultured in the presence or absence of MMF at concentrations ranging from 0-1000 μM for a period of 9 hours. Total RNA was prepared and γ-globin gene expression analyzed by qPCR. […] Data are represented as mean±SEM; *P<0.01, **P<0.001.
Identical experiments were performed using the human RPE cell line ARPE-19, an established model for the study of RPE19, and primary RPE cell cultures established from the eyes of HbAA- and HbSS-expressing Townes humanized knock-in SCD mice (Jackson Laboratories, Bar Harbor, Me.) per our published method. Additionally, MMF (1 mM final concentration) or PBS (control) was injected intravitreally into the eyes of HbAA and HbSS mice and retinal γ-globin and HbF expression analyzed by qPCR and immunofluorescence 24 h post-injection. Animal studies were approved by the Georgia Regents University Institutional Committee for Animal Use in Research and Education.
HbF protein production in ARPE-19 cells exposed to MMF (1000 μM) for 24 h was evaluated using a FITC-conjugated HbF antibody and fluorescence microscopy (data not shown). Cell nuclei were counterstained with DAPI. […]

KU812 cells = format: cell-based; conditions: human, 48 h
Source text: as §1, with “pRL-null.” for “pRL-null. The dual-luciferase reporter lines were produced using 10 μg each of linearized μLCRβprRluc AγprFluc and pEGFP-NI plasmids co-transfected into KU812 cells by electroporation at 260 V, 975 μF (Bio-Rad, Hercules Calif.). After 72 hr, G418 was added at a concentration of 900 μg/μl for 3 days then maintained under selection pressure indefinitely at a concentration of 400 μg/μl.”
Luciferase activity, an indicator of γ-globin promoter induction, was monitored KU812 μLCRβprRlucγprFluc—stable cells cultured in the presence of absence (untreated control, UT) of MMF at varying dosages for 48 hour according to the method discussed above and in MaKala et al., Anemia, Volume 2012, Article ID 428137) (2012).
HU (100 μM; Sigma) was included as a positive control and cell viability was monitored by trypan blue exclusion. […] Globin expression was measured by qPCR also as previously published. […]

[4] = system: γ-globin gene expression in KU812 cells; assay: γ-globin gene expression by qPCR in KU812 cells; format: cell-based, human; conditions: 100 μM, depending upon the incubation time (3-24 h)
Experimental: KU812 cells were cultured in the presence or absence of MMF for time periods ranging from 0-24 hours and evaluated for changes in γ-globin gene expression relative to 18S ribosomal RNA expression (internal experimental control) by qPCR (FIG. 1). In comparison to control, untreated (UT) cells, significant increases in γ-globin gene expression were observed as early as 3 hours post-incubation with low-does (100 μM) MMF treatment. This MMF-induced increase in γ-globin expression persisted up to 24 h post-exposure to the compound. Data in FIG. 1 are represented as means±standard error of the mean (SEM); *P<0.05, **P<0.01 and ***P<0.001.
FIG. 2 is reproduced from MaKala et al., Anemia, Volume 2012, Article ID 428137) (2012). […] At 100 μM, the same concentration that we used for MMF, HU induces γ-globin gene expression ˜2-fold.

[5] = system: γ/β-globin mRNA in primary human erythroid cells; assay: γ/β-globin mRNA by qPCR in primary human erythroid progenitors; format: cell-based; conditions: DMF 200 μM, MMF 1000 μM
Experimental: HU (100 μM; Sigma) was included as a positive control and cell viability was monitored by trypan blue exclusion. Findings in KU812 cells were confirmed in human primary erythroid progenitor cells grown in liquid culture using a published protocol. Globin expression was measured by qPCR also as previously published. HbF protein was measured relative to that of isotype control using FITC conjugated anti-human HbF antibody (1:1000; Santa Cruz Biotechnology, Santa Cruz, Calif.) and fluorescence activated cell sorting (see supplemental methods for details). HbF protein expression was confirmed by Western blot analysis using anti-human HbF antibody (1:1000; Bethyl Laboratories, Inc., Montgomery, Tex.) and horseradish peroxidase-conjugated sheep IgG (1:1000; Santa Cruz). Erythroid progenitors were generated in vitro from adult CD34^+ stem cells ([…] technologies, Inc. Vancouver, Canada) using a 2-stage culture system that achieves terminal erythroid differentiation18. CD34^+ stem cells (500,000) were grown in First medium consisting of Iscove Modified Dulbecco Media containing human AB serum, interleukin-3 (10 ng/mL), stem cell factor (10 ng/mL) and erythropoietin (2 IU/mL). On day 7, the erythroblasts were placed in Second medium with 2 IU/mL erythropoietin for the duration. […] Then cells were harvested for total RNA and protein for qPCR, FACS and western blot analyses.

[6] = single doses, healthy adults, cited from earlier work

effectiveness as inducer of γ-globin promoter activity at higher concentrations (γ-globin promoter; concentrations higher than 100-200 μM): declined substantially
Structure (SMILES): COC(=O)/C=C/C(=O)OC [DMF, dimethyl fumarate]
concentration of maximal induction of γ-globin promoter activity (γ-globin promoter): 200 µM | permeability ([1]; in vitro small intestinal cell model): high permeability | metabolism in the intestinal tissue ([1]; intestinal tissue): complete metabolism | increase in HbF positive cells (FACS) [2]: 28 fold

Structure (SMILES): NC(=O)NO [HU, hydroxyurea]
OCTN1 expression (OCTN1): little to no effect | γ-globin expression and HbF production in RPE cells [3]: induction of γ-globin expression and HbF production | increase in HbF positive cells (FACS) [2]: 15 fold

Structure (SMILES): COC(=O)/C=C/C(=O)O [MMF, monomethyl fumarate]
concentration of maximal induction of γ-globin promoter activity (γ-globin promoter): 1000 µM | Cell viability by Trypan blue exclusion (KU812 cells): 90-95% | γ-globin gene expression, fold increase vs untreated [4]: 2-4 fold | γ/β-globin mRNA induction [5]: 8 fold | increase in HbF positive cells (FACS) [2]: 32 fold

Structure (SMILES): CCN(CC)C(=O)COC(=O)/C=C/C(=O)OC [XP23829]
tolerability ([6]; four oral formulations): generally well-tolerated | levels of MMF in the blood [6]: expected levels of MMF in the blood
